Source: patent publication US20260022143A1, “Cyclic Peptide Inhibitors of IL-23” (JANSSEN PHARMACEUTICA NV, priority 2022, published 2026)
Starred links: 1 amine or outer side, 2 acyl side, 3 side chain; linkers in the order of their positions; H or OH if unused. Positions of bridges follow the written chain, without caps; N, C: chain ends. Non-standard residues stand in square brackets, D forms with d. Residues, ends and D or L forms follow the SMILES beside them. Groups on a side chain read outwards from the residue. *: point of attachment. X46 = CCCCCCCCCCCC(=O)N[C@@H](CCC(=O)NCCOCCOCC(=O)NCCOCCOCC(=O)NCCCC[C@H](NC(=O)COCCOCCNC(=O)COCCOCCNC(=O)CC[C@H](NC(=O)CCCCCCCCCCC)C(=O)O)C(=O)*)C(=O)O; Me3N+(CH2)2O(CH2)2O(CH2)2CO = C[N+](C)(C)CCOCCOCCC(=O)*; Trp(7-Me) = Cc1cccc2c(C[C@H](N)C(=O)O)c[nH]c12; γGlu = O=C(O)[C@H](CCC(=O)[*:2])N[*:1]; 2Nal = N[C@@H](Cc1ccc2ccccc2c1)C(=O)O; 3Pal = N[C@@H](Cc1cccnc1)C(=O)O; Lys(Me) = CNCCCC[C@H](N)C(=O)O; NMeK = CN[C@@H](CCCCN)C(=O)O; Pen = CC(C)(S)[C@H](N)C(=O)O; Lauroyl = CCCCCCCCCCCC(=O)*; X11 = N=C(N)NCCOCCOCCC(=O)*; X31 = N=C(N)NCCOCCC(=O)*; Thp = NC1(C(=O)O)CCOCC1; X3 = C[N+](C)(C)CCCCC*; AEEA = NCCOCCOCC(=O)O; Sar = CNCC(=O)O

Legend:
IL-23R = target: T1, IL-23R (Homo sapiens, UniProt Q5VWK5); assay: IL23R Reporter Assay; type: cell-based; settings: HEK293 cells containing IL-23R, IL-12RP1 and STAT-inducible firefly luciferase reporter; 10 ng/mL IL-23 (EC90); 5 h at 37° C.; read-out: IL23R Reporter Assay
T1 construct: host or cells: HEK293
T1 sequence (Q5VWK5 24-629): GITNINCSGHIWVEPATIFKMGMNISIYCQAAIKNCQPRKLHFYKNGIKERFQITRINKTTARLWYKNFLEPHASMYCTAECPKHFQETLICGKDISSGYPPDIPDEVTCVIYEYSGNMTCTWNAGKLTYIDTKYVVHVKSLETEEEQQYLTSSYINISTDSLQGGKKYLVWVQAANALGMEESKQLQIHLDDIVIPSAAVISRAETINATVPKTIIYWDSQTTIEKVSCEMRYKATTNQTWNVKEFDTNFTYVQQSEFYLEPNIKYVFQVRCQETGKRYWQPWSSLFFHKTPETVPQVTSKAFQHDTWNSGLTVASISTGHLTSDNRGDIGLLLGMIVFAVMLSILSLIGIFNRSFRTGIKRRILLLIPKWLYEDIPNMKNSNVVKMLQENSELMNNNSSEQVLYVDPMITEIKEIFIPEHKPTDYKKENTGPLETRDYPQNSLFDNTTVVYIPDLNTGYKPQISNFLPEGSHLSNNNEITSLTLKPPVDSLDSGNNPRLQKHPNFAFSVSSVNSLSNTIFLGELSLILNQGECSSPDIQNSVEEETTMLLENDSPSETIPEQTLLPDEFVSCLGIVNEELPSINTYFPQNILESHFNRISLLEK

[1] = Exposed Polar Surface Area (EPSA); type: physicochemical; settings: SFC on Chirex 3014 column; sample 1 mM DMSO stock; read-out: EPSA
Method in brief: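 Polarity descriptor in Å² derived from retention time using 8 calibration standards re-run every 20 compounds. Duplicate injections of 1 mM DMSO stock; linear 5–60% modifier gradient (20 mM ammonium formate in MeOH) with CO2 at 4 mL/min, 35 °C, on a Chirex 3014 column.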

SMILES	IC50 (IL-23R)	EPSA [1]
CCCCCCCCCCCC(=O)N[C@@H](CCC(=O)NCCOCCOCC(=O)NCCOCCOCC(=O)NCCCC[C@H](NC(=O)COCCOCCNC(=O)COCCOCCNC(=O)CC[C@H](NC(=O)CCCCCCCCCCC)C(=O)O)C(=O)NCCOCCOCC(=O)NCCOCCOCC(=O)NCCCC[C@@H](C(N)=O)N(C)C(=O)[C@H](Cc1cccnc1)NC(=O)[C@H](CC(N)=O)NC(=O)[C@H](CCCCN(C)C(C)=O)NC(=O)C1(NC(=O)[C@H](Cc2ccc3ccccc3c2)NC(=O)[C@H](Cc2ccc(OCCCCC[N+](C)(C)C)cc2)NC(=O)[C@H]2NC(=O)[C@H](CCCCNC(C)=O)NC(=O)[C@H](Cc3c[nH]c4c(C)cccc34)NC(=O)[C@H]([C@@H](C)O)NC(=O)[C@H](CC(=O)N(C)C)NC(=O)[C@@H](NC(=O)CCOCCOCC[N+](C)(C)C)C(C)(C)SSC2(C)C)CCOCC1)C(=O)O [compound 372, cPEG3aCO-Pen(3)-N(N(Me)2)-T-7MeW-K(Ac)-Pen(3)-TMAPF-2Nal-THP-K(NMeac)-N-3Pya-NMeK(PEG2PEG2K(PEG2PEG2gEC12)2)-CONH2] ({Me3N+(CH2)2O(CH2)2O(CH2)2CO}-[Pen]D(NMe2)T[Trp(7-Me)]K(Ac)[Pen]Y(X3)[2Nal][Thp][Lys(Me)](Ac)N[3Pal][NMeK]([AEEA-AEEA-X46])-NH2; disulfide 1-6)	20 nM	203 A^2
CC(=O)N(C)CCCC[C@H](NC(=O)C1(NC(=O)[C@H](Cc2ccc3ccccc3c2)NC(=O)[C@H](Cc2ccc(OCCCCC[N+](C)(C)C)cc2)NC(=O)[C@H]2NC(=O)[C@H](CCCCNC(=O)CCOCCOCC[N+](C)(C)C)NC(=O)[C@H](Cc3c[nH]c4c(C)cccc34)NC(=O)[C@H]([C@@H](C)O)NC(=O)[C@H](CC(=O)N(C)C)NC(=O)[C@@H](NC(=O)CCOCCOCC[N+](C)(C)C)C(C)(C)SSC2(C)C)CCOCC1)C(=O)N[C@@H](CC(N)=O)C(=O)N[C@@H](Cc1cccnc1)C(=O)N(C)CC(=O)N(C)C [compound 384, cPEG3aCO-Pen(3)-N(N(Me)2)-T-7MeW-K(cPEG3a)-Pen(3)-TMAPF-2Nal-THP-K(NMeAc)-N-3Pya-Sar-CON(Me)2] ({Me3N+(CH2)2O(CH2)2O(CH2)2CO}-[Pen]D(NMe2)T[Trp(7-Me)]K(Me3N+(CH2)2O(CH2)2O(CH2)2CO)[Pen]Y(X3)[2Nal][Thp][Lys(Me)](Ac)N[3Pal][Sar]-NMe2; disulfide 1-6)	1.4 nM	157 A^2
CCCCCCCCCCCC(=O)N[C@@H](CCC(=O)NCCOCCOCC(=O)NCCOCCOCC(=O)NCCCC[C@@H]1NC(=O)[C@H](Cc2c[nH]c3c(C)cccc23)NC(=O)[C@H]([C@@H](C)O)NC(=O)[C@H](CCCCNC(=O)COCCOCCNC(=O)COCCOCCNC(=O)CC[C@H](NC(=O)CCCCCCCCCCC)C(=O)O)NC(=O)[C@@H](NC(=O)CCOCCOCC[N+](C)(C)C)C(C)(C)SSC(C)(C)[C@@H](C(=O)N[C@@H](Cc2ccc(OCCCCC[N+](C)(C)C)cc2)C(=O)N[C@@H](Cc2ccc3ccccc3c2)C(=O)NC2(C(=O)N[C@@H](CCCCN(C)C(C)=O)C(=O)N[C@@H](CC(N)=O)C(=O)N[C@@H](Cc3cccnc3)C(=O)N(C)CC(=O)N(C)C)CCOCC2)NC1=O)C(=O)O [compound 389, cPEG3aCO-Pen(3)-K(PEG2PEG2gEC12)-T-7MeW-K(PEG2PEG2gEC12)-Pen(3)-TMAPF-2Nal-THP-K(NMeAc)-N-3Pya-Sar-CON(Me)2] ({Me3N+(CH2)2O(CH2)2O(CH2)2CO}-[Pen]K([AEEA-AEEA-γGlu-Lauroyl])T[Trp(7-Me)]K([AEEA-AEEA-γGlu-Lauroyl])[Pen]Y(X3)[2Nal][Thp][Lys(Me)](Ac)N[3Pal][Sar]-NMe2; disulfide 1-6)	390 nM	185 A^2
CC(=O)N(C)CCCC[C@@H]1NC(=O)[C@H](Cc2c[nH]c3c(C)cccc23)NC(=O)[C@H]([C@@H](C)O)NC(=O)[C@H](CC(=O)N(C)C)NC(=O)[C@@H](NC(=O)CCOCCNC(=N)N)C(C)(C)SSC(C)(C)[C@@H](C(=O)N[C@@H](Cc2ccc(OCCCCC[N+](C)(C)C)cc2)C(=O)N[C@@H](Cc2ccc3ccccc3c2)C(=O)NC2(C(=O)N[C@@H](CCCCN(C)C(C)=O)C(=O)N[C@@H](CC(N)=O)C(=O)N[C@@H](Cc3cccnc3)C(=O)N(C)CC(=O)N(C)C)CCOCC2)NC1=O [compound 390, cPEG2gCO-Pen(3)-N(N(Me)2)-T-7MeW-K(NMeAc)-Pen(3)-TMAPF-2Nal-THP-K(NMeAc)-N-3Pya-Sar-CON(Me)2] (X31-[Pen]D(NMe2)T[Trp(7-Me)][Lys(Me)](Ac)[Pen]Y(X3)[2Nal][Thp][Lys(Me)](Ac)N[3Pal][Sar]-NMe2; disulfide 1-6)	1.2 nM	148 A^2
CC(=O)N(C)CCCC[C@@H]1NC(=O)[C@H](Cc2c[nH]c3c(C)cccc23)NC(=O)[C@H]([C@@H](C)O)NC(=O)[C@H](CC(=O)N(C)C)NC(=O)[C@@H](NC(=O)CCOCCOCCNC(=N)N)C(C)(C)SSC(C)(C)[C@@H](C(=O)N[C@@H](Cc2ccc(OCCCCC[N+](C)(C)C)cc2)C(=O)N[C@@H](Cc2ccc3ccccc3c2)C(=O)NC2(C(=O)N[C@@H](CCCCN(C)C(C)=O)C(=O)N[C@@H](CC(N)=O)C(=O)N[C@@H](Cc3cccnc3)C(=O)N(C)CC(=O)N(C)C)CCOCC2)NC1=O [compound 391, cPEG3gCO-Pen(3)-N(N(Me)2)-T-7MeW-K(NMeAc)-Pen(3)-TMAPF-2Nal-THP-K(NMeAc)-N-3Pya-Sar-CON(Me)2] (X11-[Pen]D(NMe2)T[Trp(7-Me)][Lys(Me)](Ac)[Pen]Y(X3)[2Nal][Thp][Lys(Me)](Ac)N[3Pal][Sar]-NMe2; disulfide 1-6)	1.5 nM	158 A^2
CCCCCCCCCCCC(=O)N[C@@H](CCC(=O)NCCOCCOCC(=O)NCCOCCOCC(=O)NCCCC[C@@H]1NC(=O)[C@H](Cc2c[nH]c3c(C)cccc23)NC(=O)[C@H]([C@@H](C)O)NC(=O)[C@H](CC(=O)N(C)C)NC(=O)[C@@H](NC(=O)CCOCCOCC[N+](C)(C)C)C(C)(C)SSC(C)(C)[C@@H](C(=O)N[C@@H](Cc2ccc(OCCCCC[N+](C)(C)C)cc2)C(=O)N[C@@H](Cc2ccc3ccccc3c2)C(=O)NC2(C(=O)N[C@@H](CCCCNC(=O)COCCOCCNC(=O)COCCOCCNC(=O)CC[C@H](NC(=O)CCCCCCCCCCC)C(=O)O)C(=O)N[C@@H](CC(N)=O)C(=O)N[C@@H](Cc3cccnc3)C(=O)N(C)CC(=O)N(C)C)CCOCC2)NC1=O)C(=O)O [compound 400, cPEG3aCO-Pen(3)-N(N(Me)2)-T-7MeW-K(PEG2PEG2gEC12)-Pen(3)-TMAPF-2Nal-THP-K(PEG2PEG2gEC12)-N-3Pya-Sar-CON(Me)2] ({Me3N+(CH2)2O(CH2)2O(CH2)2CO}-[Pen]D(NMe2)T[Trp(7-Me)]K([AEEA-AEEA-γGlu-Lauroyl])[Pen]Y(X3)[2Nal][Thp]K([AEEA-AEEA-γGlu-Lauroyl])N[3Pal][Sar]-NMe2; disulfide 1-6)	290 nM	173 A^2
CCCCCCCCCCCC(=O)N[C@@H](CCC(=O)NCCOCCOCC(=O)NCCOCCOCC(=O)NCCCC[C@H](NC(=O)C1(NC(=O)[C@H](Cc2ccc3ccccc3c2)NC(=O)[C@H](Cc2ccc(OCCCCC[N+](C)(C)C)cc2)NC(=O)[C@H]2NC(=O)[C@H](CCCCN(C)C(C)=O)NC(=O)[C@H](Cc3c[nH]c4c(C)cccc34)NC(=O)[C@H]([C@@H](C)O)NC(=O)[C@H](CC(=O)N(C)C)NC(=O)[C@@H](NC(=O)CCOCCOCC[N+](C)(C)C)C(C)(C)SSC2(C)C)CCOCC1)C(=O)N[C@@H](CC(N)=O)C(=O)N[C@@H](Cc1cccnc1)C(=O)N(C)CC(=O)N(C)C)C(=O)O [compound 401, cPEG3aCO-Pen(3)-N(N(Me)2)-T-7MeW-K(NMeAc)-Pen(3)-TMAPF-2Nal-THP-K(PEG2PEG2gEC12)-N-3Pya-Sar-CON(Me)2] ({Me3N+(CH2)2O(CH2)2O(CH2)2CO}-[Pen]D(NMe2)T[Trp(7-Me)][Lys(Me)](Ac)[Pen]Y(X3)[2Nal][Thp]K([AEEA-AEEA-γGlu-Lauroyl])N[3Pal][Sar]-NMe2; disulfide 1-6)	5.9 nM	155 A^2
